From patent publication US12290565B2, “Methods of using anti-PSGL-1 antibodies in combination with JAK inhibitors to treat T-cell mediated inflammatory diseases or cancers” (AltruBio Inc., priority 2021, dated 2025)
Like-named read-outs stand apart in the source and are kept apart here.

How the values were obtained:
activated T cells [1] = experiment: Fixed-ratio combination cytotoxicity assay, ruxolitinib + 15A7H (Chou-Talalay, Calcusyn); type: cell-based, human; conditions: for EC50: Homo sapiens, T-cell; for DRIRUXO (Dose-Reduction Index): EC50 level
Method: T cell stimulation was achieved through Phytohemagglutinin-L (PHA) treatment prior to the apoptosis assays described below. In brief, human blood samples used in the study were obtained from heathy human donors. […] The buffy coat layer containing mononuclear cells was collected and washed 3 times with phosphate-buffered saline (PBS) to minimize platelet contamination.
Activated T cells were seeded in 96-well plates at 1-1.5×10^5 cells/mL and were treated with ruxolitinib and antibody 15A7H alone, or in combination at fixed concentration ratios. For the combination of ruxolitinib and antibody 15A7H, fixed ratios at 3.3:1 and 1.1:1 were tested on T cells from four donors. In addition, a fixed ratio of ruxolitinib and antibody 15A7H of 0.37:1 was tested on T cells from two donors.
Cell apoptosis was measured using an Annexin-V FITC Apoptosis Detection Kit (Strong Biotech, AVK250), according to the manufacturer's instructions.
Results were expressed as apoptosis fractions (fraction affected), based on the measured fluorescence counts of treated samples, compared with that of untreated controls. Seven diagonals representing various dose-effect curves with fixed drug ratios were used to measure the combination indexes (CI) for each of the combinations with Calcusyn software (Biosoft). The combinatorial effect was defined as “synergistic”, “additive” or “antagonistic” when CI was <1, 1 and >1, respectively.

[2] = system: xenogeneic GvHD in ASID mice engrafted with human PBMCs; experiment: Xenogeneic graft-versus-host disease (GvHD) mouse model, survival; type: in vivo; conditions: ruxolitinib 45 mg/kg oral twice daily 15 days and/or 15A7H 10 mg/kg i.v. every 3 to 4 days, 5 doses
Method: 8-9 weeks old female Advanced Severe Immuno-Deficiency (ASID) mice (NOD.Cg-Prkdc^scidIl2rg^tm1Wjl/YckNarl; NLAC NARLabs Taiwan) received a total body irradiation dose of 2.0 Gy and were engrafted with 3×10^6 human PBMCs by tail vein injection at 24 hours post irradiation. The mice were kept under pathogen-free conditions and reared under standardized methods as temperature set at 22±1° C. with a 12-hour daylight/dark cycle and full access to food and water. Experimental animals were randomly divided into treatment groups after receiving a minimum of 3 days of acclimatization to the environment.
Xenogeneic GvHD (xGvHD) was induced in ASID mice receiving 3×10^6 human PBMCs (n=5-7 per group). Post 72 hours of human PBMC engraftment, ruxolitinib at 45 mg/kg or vehicle was orally administered twice daily for 15 days, as well as anti-PSGL-1 15A7H antibody at 10 mg/kg or vehicle was intravenously administered every 3 to 4 days for total 5 doses. Mice were assessed for survival daily. The time of the treatment initiated was designated as Day 1.

activated T cells [3] = experiment: T cell apoptosis assay (Annexin V/PI FACS), 15A7H and/or ruxolitinib; type: cell-based, human; conditions: ruxolitinib alone, 0.122-10 μM, 48 hours
Method: T cell stimulation was achieved through Phytohemagglutinin-L (PHA) treatment prior to the apoptosis assays described below. In brief, human blood samples used in the study were obtained from heathy human donors. Peripheral blood mononuclear cells (PBMCs) were freshly isolated from whole blood by Ficoll-Hypaque gradient centrifugation (Ficoll-Paque PLUS, GE Healthcare, Cat #17-1440-03) at 2400 revolutions per minute (rpm) for 15 minutes at room temperature. The buffy coat layer containing mononuclear cells was collected and washed 3 times with phosphate-buffered saline (PBS) to minimize platelet contamination. […]
Fluorescence-activated cell sorting (FACS) analysis using the Annexin V/propidium iodide (PI) staining method was used to determine the apoptotic rate in drug- and control-treated cells. […]
Samples were run on a flow cytometer (BD LSR scanner; BD Biosciences, San Diego), and cell viability and apoptosis were calculated using a quadrant on the Annexin-V-FITC/PI histogram. Living cells were identified as those negatively stained for both fluorescence dyes, early apoptotic cells were identified as those only Annexin-V-FITC-positive, necrotic cells were identified as those only PI-positive, and late apoptotic cells were identified as those positively stained for both fluorescence dyes. […]

activated T cells [4] = experiment: Fixed-ratio combination cytotoxicity assay, ruxolitinib + LH10, c43B6 or h9F9; type: cell-based; conditions: antibody with cross-linker
Method: PBMCs were obtained from peripheral blood of healthy donors. Isolation was performed by density centrifugation of blood on Ficoll (GE Healthcare, Cat #17-1440-03). The harvested PBMCs were used for the generation of activated T cells by incubating with PHA (3 μg/mL, SIGMA, Cat: L2769-10 mg) in RPMI-1640 medium (10% FBS, 1% Penicillin/Streptomycin and 2-Mercaptoethanol) for 2 days, followed by maintenance in medium containing recombinant human Interleukin-2 (5 ng/mL, R&D Systems, Cat. #202-IL-050) for an additional between about 4˜6 days.
In addition to 15A7H, anti-PSGL-1 antibodies LH10, c43B6 and h9F9 were tested for the ability to induce cell death in activated T cells. The purpose of this study was to determine whether apoptosis inducing anti-PSGL-1 antibodies plus ruxolitinib would result in a better cytotoxic effect on activated T cells. The combinatorial effect was evaluated using Chou-Talalay median effect analysis using fixed ratios of antibodies and ruxolitinib in cytotoxicity assays. […]
Cell apoptosis was determined as described in Example 1, and the combinatorial drug effect combination indexes (CI) were analyzed using CalcuSyn (Biosoft, Ferguson, MO, USA), which allows automated simulation of synergism or antagonism, where CI<1 indicates synergy, CI=1 indicates additivity, and CI>1 indicates antagonism.

N#CC[C@H](C1CCCC1)n1cc(-c2ncnc3[nH]ccc23)cn1 [RUXO, (R)-3-(4-(7H-pyrrolo[2,3-d]pyrimidin-4-yl)-1 H-pyrazol-1-yl)-3-cyclopentylpropanenitrile]
EC50 (activated T cells [1]; donor N084, RUXO + 15A7H, ratio 1.1:1, read-out: EC50RUXO Combination Treatment): 201 nM | EC50 (activated T cells [1]; donor N084, RUXO + 15A7H, ratio 3.3:1, read-out: EC50RUXO Combination Treatment): 373 nM | EC50 (activated T cells [1]; donor N084, RUXO alone, section ratio 1.1:1, read-out: EC50RUXO Single Treatment): 4220 nM | EC50 (activated T cells [1]; donor N084, RUXO alone, section ratio 3.3:1, read-out: EC50RUXO Single Treatment): 4220 nM | EC50 (activated T cells [1]; donor N089, RUXO + 15A7H, ratio 1.1:1, read-out: EC50RUXO Combination Treatment): 394 nM | EC50 (activated T cells [1]; donor N089, RUXO + 15A7H, ratio 3.3:1, read-out: EC50RUXO Combination Treatment): 479 nM | EC50 (activated T cells [1]; donor N089, RUXO alone, section ratio 1.1:1, read-out: EC50RUXO Single Treatment): 2360 nM | EC50 (activated T cells [1]; donor N089, RUXO alone, section ratio 3.3:1, read-out: EC50RUXO Single Treatment): 2000 nM | EC50 (activated T cells [1]; donor N102, RUXO + 15A7H, ratio 0.37:1, read-out: EC50RUXO Combination Treatment): 165 nM | EC50 (activated T cells [1]; donor N102, RUXO + 15A7H, ratio 1.1:1, read-out: EC50RUXO Combination Treatment): 499 nM | EC50 (activated T cells [1]; donor N102, RUXO + 15A7H, ratio 3.3:1, read-out: EC50RUXO Combination Treatment): 1150 nM | EC50 (activated T cells [1]; donor N102, RUXO alone, section ratio 0.37:1, read-out: EC50RUXO Single Treatment): 10100 nM | EC50 (activated T cells [1]; donor N102, RUXO alone, section ratio 1.1:1, read-out: EC50RUXO Single Treatment): 10100 nM | EC50 (activated T cells [1]; donor N102, RUXO alone, section ratio 3.3:1, read-out: EC50RUXO Single Treatment): 10100 nM | EC50 (activated T cells [1]; donor N103, RUXO + 15A7H, ratio 0.37:1, read-out: EC50RUXO Combination Treatment): 266 nM | EC50 (activated T cells [1]; donor N103, RUXO + 15A7H, ratio 1.1:1, read-out: EC50RUXO Combination Treatment): 554 nM | EC50 (activated T cells [1]; donor N103, RUXO + 15A7H, ratio 3.3:1, read-out: EC50RUXO Combination Treatment): 1010 nM | EC50 (activated T cells [1]; donor N103, RUXO alone, section ratio 0.37:1, read-out: EC50RUXO Single Treatment): 9170 nM | EC50 (activated T cells [1]; donor N103, RUXO alone, section ratio 1.1:1, read-out: EC50RUXO Single Treatment): 9170 nM | EC50 (activated T cells [1]; donor N103, RUXO alone, section ratio 3.3:1, read-out: EC50RUXO Single Treatment): 9170 nM | DRIRUXO (Dose-Reduction Index) (activated T cells [1]; donor N084, RUXO + 15A7H, ratio 1.1:1): 20.9884 | DRIRUXO (Dose-Reduction Index) (activated T cells [1]; donor N084, RUXO + 15A7H, ratio 3.3:1): 11.3242 | DRIRUXO (Dose-Reduction Index) (activated T cells [1]; donor N089, RUXO + 15A7H, ratio 1.1:1): 6.0012 | DRIRUXO (Dose-Reduction Index) (activated T cells [1]; donor N089, RUXO + 15A7H, ratio 3.3:1): 4.1685 | DRIRUXO (Dose-Reduction Index) (activated T cells [1]; donor N102, RUXO + 15A7H, ratio 0.37:1): 61.2797 | DRIRUXO (Dose-Reduction Index) (activated T cells [1]; donor N102, RUXO + 15A7H, ratio 1.1:1): 20.2269 | DRIRUXO (Dose-Reduction Index) (activated T cells [1]; donor N102, RUXO + 15A7H, ratio 3.3:1): 8.7676 | DRIRUXO (Dose-Reduction Index) (activated T cells [1]; donor N103, RUXO + 15A7H, ratio 0.37:1): 34.4195 | DRIRUXO (Dose-Reduction Index) (activated T cells [1]; donor N103, RUXO + 15A7H, ratio 1.1:1): 16.5574 | DRIRUXO (Dose-Reduction Index) (activated T cells [1]; donor N103, RUXO + 15A7H, ratio 3.3:1): 9.0902 | effect on xenogeneic GVHD induced by human lymphocytes [2]: ameliorated xenogeneic GVHD | increase in apoptosis over background levels (activated T cells [3]): minimal or no increases in apoptosis over background levels

B1: h9F9: anti-PSGL-1 antibody; heavy chain SEQ ID NO:35, light chain SEQ ID NO:39 (antibody)
heavy: EVQLVESGGGLVQPGGSLKLSCAASGFTFNTNAMNWVRQAPGKGLEWVARIRSKSNNYATYYADSVKDRFTISRDDSKSIIYLQMNSLKTEDTGIYYCVRGGSYWYFDVWGTGTTVTVSSASTKGPSVFPLAPCSRSTSESTAALGCLVKDYFPEPVTVSWNSGALTSGVHTFPAVLQSSGLYSLSSVVTVPSSSLGTKTYTCNVDHKPSNTKVDKRVESKYGPPCPPCPAPPVAGGPSVFLFPPKPKDTLMISRTPEVTCVVVDVSQEDPEVQFNWYVDGVEVHNAKTKPREEQFNSTYRVVSVLTVLHQDWLNGKEYKCKVSNKGLPSSIEKTISKAKGQPREPQVYTLPPSQEEMTKNQVSLTCLVKGFYPSDIAVEWESNGQPENNYKTTPPVLDSDGSFFLYSRLTVDKSRWQEGNVFSCSVMHEALHNHYTQKSLSLSLG
light: DVIMTQSPLSLPVSLGQPASISCRSSQSIVNSNGNTYLEWYLQKPGQSPRLLIYKVSNRFSGVPDRFSGSGSGTDFTLKISRVEAEDVGVYYCFQGSHVPWTFGGGTKLEIKRTVAAPSVFIFPPSDEQLKSGTASVVCLLNNFYPREAKVQWKVDNALQSGNSQESVTEQDSKDSTYSLSSTLTLSKADYEKHKVYACEVTHQGLSSPVTKSFNRGEC
cytotoxicity ability in activated T cells (activated T cells [4]): had cytotoxicity ability
